# Data as given in article PMC4385830, “Group I Paks as therapeutic targets in NF2-deficient meningioma” (Oncotarget, 2015).
# What was measured:
# Assay in all cases: Kinase selectivity, Z'-LYTE
# Type in all cases: biochemical
# [1] = biological target: T1, CSF1R (FMS) (Homo sapiens, UniProt P07333)
# T1 construct: purchased Invitrogen (Life Technologies) SelectScreen Z'-LYTE
# In short: (§1)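 Each recombinant kinase phosphorylates a peptide substrate under conditions optimized for that enzyme. A protease then cleaves only non-phosphorylated peptide, and the fluorescence change reports kinase activity.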
# [2] = biological target: T2, P1K3C2B (P13K-C2-beta) (Homo sapiens, UniProt O00750)
# T2 construct: purchased Invitrogen (Life Technologies) SelectScreen Z'-LYTE
# In short: as §1
# [3] = biological target: T3, ADRBK2 (GRK3) (Homo sapiens, UniProt P35626)
# T3 construct: purchased Invitrogen (Life Technologies) SelectScreen Z'-LYTE
# T3 sequence (P35626 1-688): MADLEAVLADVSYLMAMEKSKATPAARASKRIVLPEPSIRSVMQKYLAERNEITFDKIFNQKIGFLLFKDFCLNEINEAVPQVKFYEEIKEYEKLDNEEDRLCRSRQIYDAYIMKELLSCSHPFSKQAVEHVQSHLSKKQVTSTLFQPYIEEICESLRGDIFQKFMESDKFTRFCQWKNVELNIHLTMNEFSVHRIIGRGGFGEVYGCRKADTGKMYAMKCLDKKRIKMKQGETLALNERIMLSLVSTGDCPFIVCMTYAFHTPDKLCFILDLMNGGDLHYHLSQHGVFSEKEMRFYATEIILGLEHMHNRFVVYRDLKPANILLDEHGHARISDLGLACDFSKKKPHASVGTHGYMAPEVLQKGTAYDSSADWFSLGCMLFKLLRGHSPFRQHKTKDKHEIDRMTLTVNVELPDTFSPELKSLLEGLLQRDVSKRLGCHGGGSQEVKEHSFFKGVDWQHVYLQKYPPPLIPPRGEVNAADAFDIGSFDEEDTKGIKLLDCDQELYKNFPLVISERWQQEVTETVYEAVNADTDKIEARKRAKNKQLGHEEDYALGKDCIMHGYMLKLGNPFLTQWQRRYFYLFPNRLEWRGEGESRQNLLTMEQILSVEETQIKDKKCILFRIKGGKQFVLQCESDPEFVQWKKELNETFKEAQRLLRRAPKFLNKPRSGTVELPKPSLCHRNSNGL
# In short: as §1
# [4] = biological target: T4, SPHK1 (Homo sapiens, UniProt Q9NYA1)
# T4 construct: purchased Invitrogen (Life Technologies) SelectScreen Z'-LYTE
# In short: as §1
# [5] = biological target: T5, PRKCQ (PKC theta) (Homo sapiens, UniProt Q04759)
# T5 construct: purchased Invitrogen (Life Technologies) SelectScreen Z'-LYTE
# In short: as §1
# [6] = biological target: T6, CDK5/p35 (Homo sapiens, UniProt Q00535)
# T6 construct: purchased Invitrogen (Life Technologies) SelectScreen Z'-LYTE
# In short: as §1
# [7] = biological target: T7, FGFR2 (Homo sapiens, UniProt P21802)
# T7 construct: purchased Invitrogen (Life Technologies) SelectScreen Z'-LYTE
# In short: as §1
# [8] = biological target: T8, CDK9/cyclin T1 (Homo sapiens, UniProt P50750)
# T8 construct: purchased Invitrogen (Life Technologies) SelectScreen Z'-LYTE
# In short: as §1
# [9] = biological target: T9, AKT1 (PKB alpha) (Homo sapiens, UniProt P31749)
# T9 construct: purchased Invitrogen (Life Technologies) SelectScreen Z'-LYTE
# In short: as §1
# [10] = biological target: T10, RP88KB1 (p70S6K) (Homo sapiens, UniProt P23443)
# T10 construct: purchased Invitrogen (Life Technologies) SelectScreen Z'-LYTE
# In short: as §1
# [11] = biological target: T11, P1K3CA (p110 gamma) (Homo sapiens, UniProt P48736)
# T11 construct: purchased Invitrogen (Life Technologies) SelectScreen Z'-LYTE
# In short: as §1
# [12] = biological target: T12, ADRBK1 (GRK2) (Homo sapiens, UniProt P25098)
# T12 construct: purchased Invitrogen (Life Technologies) SelectScreen Z'-LYTE
# T12 sequence (P25098 1-689): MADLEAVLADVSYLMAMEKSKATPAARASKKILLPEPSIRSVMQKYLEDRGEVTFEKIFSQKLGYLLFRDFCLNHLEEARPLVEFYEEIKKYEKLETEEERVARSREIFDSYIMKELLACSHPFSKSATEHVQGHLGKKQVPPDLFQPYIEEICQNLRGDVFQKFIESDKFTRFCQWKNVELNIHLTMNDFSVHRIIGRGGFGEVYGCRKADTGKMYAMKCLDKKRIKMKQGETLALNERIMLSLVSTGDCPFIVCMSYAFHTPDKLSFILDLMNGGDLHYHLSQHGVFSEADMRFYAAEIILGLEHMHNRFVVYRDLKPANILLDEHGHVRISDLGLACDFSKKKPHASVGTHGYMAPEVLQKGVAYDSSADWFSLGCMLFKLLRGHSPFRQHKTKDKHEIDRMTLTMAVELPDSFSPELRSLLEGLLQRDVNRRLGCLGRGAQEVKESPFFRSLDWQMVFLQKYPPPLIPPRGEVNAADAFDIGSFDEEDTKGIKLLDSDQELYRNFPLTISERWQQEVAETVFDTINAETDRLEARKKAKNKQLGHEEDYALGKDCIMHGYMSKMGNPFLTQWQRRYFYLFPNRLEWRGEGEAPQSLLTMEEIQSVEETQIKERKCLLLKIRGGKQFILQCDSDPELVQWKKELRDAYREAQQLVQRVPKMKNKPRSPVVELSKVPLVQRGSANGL
# In short: as §1
# [13] = biological target: T13, PRKACA (PKA) (Homo sapiens, UniProt P17612)
# T13 construct: purchased Invitrogen (Life Technologies) SelectScreen Z'-LYTE
# In short: as §1
# [14] = biological target: T14, G3K3A (G3K3 alpha) (Homo sapiens, UniProt P49840)
# T14 construct: purchased Invitrogen (Life Technologies) SelectScreen Z'-LYTE
# In short: as §1
# [15] = biological target: T15, JAK2 (Homo sapiens, UniProt O60674)
# T15 construct: purchased Invitrogen (Life Technologies) SelectScreen Z'-LYTE
# In short: as §1
# [16] = biological target: T16, MST1R (RON) (Homo sapiens, UniProt Q04912)
# T16 construct: purchased Invitrogen (Life Technologies) SelectScreen Z'-LYTE
# In short: as §1
# [17] = biological target: T17, PAK6 (Homo sapiens, UniProt Q9NQU5)
# T17 construct: purchased Invitrogen (Life Technologies) SelectScreen Z'-LYTE
# In short: as §1
# [18] = biological target: T18, PIM1 (Homo sapiens, UniProt P11309)
# T18 construct: purchased Invitrogen (Life Technologies) SelectScreen Z'-LYTE
# In short: as §1
# [19] = biological target: T19, G3K3B (G3K3 beta) (Homo sapiens, UniProt P49841)
# T19 construct: purchased Invitrogen (Life Technologies) SelectScreen Z'-LYTE
# In short: as §1
# T6 sequence (Q00535 whole entry): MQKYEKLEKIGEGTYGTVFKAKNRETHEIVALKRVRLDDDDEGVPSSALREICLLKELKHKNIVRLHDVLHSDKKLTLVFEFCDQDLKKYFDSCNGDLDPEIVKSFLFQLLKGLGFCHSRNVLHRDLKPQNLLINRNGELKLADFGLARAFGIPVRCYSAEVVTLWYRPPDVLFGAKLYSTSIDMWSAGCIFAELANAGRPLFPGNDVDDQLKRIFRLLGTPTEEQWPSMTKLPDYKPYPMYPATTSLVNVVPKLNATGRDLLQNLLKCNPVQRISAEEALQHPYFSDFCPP
# T6 sequence (Q15078 whole entry partner): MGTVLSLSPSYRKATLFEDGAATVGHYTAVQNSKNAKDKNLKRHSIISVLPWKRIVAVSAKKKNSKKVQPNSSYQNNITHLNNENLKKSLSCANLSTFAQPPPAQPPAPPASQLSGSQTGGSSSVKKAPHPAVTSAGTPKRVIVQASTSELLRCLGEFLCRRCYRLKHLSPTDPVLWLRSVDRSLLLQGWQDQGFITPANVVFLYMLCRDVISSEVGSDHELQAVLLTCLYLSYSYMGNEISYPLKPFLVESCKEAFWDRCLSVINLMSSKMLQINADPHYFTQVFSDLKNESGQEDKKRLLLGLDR
# T19 sequence (P49841 whole entry): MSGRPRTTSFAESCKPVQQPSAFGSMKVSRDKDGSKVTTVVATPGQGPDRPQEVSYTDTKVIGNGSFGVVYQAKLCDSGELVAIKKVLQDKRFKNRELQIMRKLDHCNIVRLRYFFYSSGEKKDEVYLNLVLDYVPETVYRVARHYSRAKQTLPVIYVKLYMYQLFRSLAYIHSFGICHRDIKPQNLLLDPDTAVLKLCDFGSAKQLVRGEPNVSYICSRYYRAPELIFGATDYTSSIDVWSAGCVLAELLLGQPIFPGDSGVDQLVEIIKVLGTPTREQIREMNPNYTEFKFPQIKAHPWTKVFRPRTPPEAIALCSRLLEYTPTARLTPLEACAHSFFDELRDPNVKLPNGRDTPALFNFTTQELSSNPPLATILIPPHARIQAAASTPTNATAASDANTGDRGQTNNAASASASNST
# T9 sequence (P31749 whole entry): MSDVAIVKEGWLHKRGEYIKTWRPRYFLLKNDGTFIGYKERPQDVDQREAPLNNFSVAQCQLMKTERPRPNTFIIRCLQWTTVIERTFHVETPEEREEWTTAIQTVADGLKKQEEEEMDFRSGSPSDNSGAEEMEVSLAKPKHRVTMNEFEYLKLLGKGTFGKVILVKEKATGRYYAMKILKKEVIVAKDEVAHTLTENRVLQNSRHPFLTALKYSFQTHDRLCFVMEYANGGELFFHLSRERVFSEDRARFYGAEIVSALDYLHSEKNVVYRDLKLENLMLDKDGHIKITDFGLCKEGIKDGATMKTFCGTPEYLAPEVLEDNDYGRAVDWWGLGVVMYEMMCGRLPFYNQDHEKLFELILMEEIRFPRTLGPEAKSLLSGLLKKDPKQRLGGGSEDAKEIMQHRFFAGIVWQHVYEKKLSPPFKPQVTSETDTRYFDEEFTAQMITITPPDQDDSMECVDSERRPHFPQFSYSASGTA
# T18 sequence (P11309 whole entry): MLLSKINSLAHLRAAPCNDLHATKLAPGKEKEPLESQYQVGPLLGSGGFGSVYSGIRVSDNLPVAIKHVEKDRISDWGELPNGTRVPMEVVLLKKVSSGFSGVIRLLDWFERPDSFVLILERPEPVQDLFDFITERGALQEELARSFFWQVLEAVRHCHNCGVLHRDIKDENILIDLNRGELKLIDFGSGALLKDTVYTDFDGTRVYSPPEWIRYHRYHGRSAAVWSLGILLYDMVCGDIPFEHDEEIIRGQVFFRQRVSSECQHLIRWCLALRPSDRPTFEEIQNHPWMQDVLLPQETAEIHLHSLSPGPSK
# T10 sequence (P23443 whole entry): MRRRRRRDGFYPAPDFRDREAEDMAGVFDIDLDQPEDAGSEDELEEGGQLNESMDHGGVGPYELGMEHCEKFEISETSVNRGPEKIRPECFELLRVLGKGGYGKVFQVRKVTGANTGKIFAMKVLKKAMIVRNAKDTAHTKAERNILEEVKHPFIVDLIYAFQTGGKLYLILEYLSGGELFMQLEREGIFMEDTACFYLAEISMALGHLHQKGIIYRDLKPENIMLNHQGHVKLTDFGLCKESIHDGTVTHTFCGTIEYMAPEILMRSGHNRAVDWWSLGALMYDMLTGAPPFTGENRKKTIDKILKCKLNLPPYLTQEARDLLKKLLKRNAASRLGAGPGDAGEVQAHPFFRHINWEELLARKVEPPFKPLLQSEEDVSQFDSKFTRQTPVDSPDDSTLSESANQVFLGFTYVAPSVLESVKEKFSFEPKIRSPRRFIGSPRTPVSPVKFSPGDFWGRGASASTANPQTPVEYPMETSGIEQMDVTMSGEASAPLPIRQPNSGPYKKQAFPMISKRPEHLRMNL
# T11 sequence (P48736 whole entry): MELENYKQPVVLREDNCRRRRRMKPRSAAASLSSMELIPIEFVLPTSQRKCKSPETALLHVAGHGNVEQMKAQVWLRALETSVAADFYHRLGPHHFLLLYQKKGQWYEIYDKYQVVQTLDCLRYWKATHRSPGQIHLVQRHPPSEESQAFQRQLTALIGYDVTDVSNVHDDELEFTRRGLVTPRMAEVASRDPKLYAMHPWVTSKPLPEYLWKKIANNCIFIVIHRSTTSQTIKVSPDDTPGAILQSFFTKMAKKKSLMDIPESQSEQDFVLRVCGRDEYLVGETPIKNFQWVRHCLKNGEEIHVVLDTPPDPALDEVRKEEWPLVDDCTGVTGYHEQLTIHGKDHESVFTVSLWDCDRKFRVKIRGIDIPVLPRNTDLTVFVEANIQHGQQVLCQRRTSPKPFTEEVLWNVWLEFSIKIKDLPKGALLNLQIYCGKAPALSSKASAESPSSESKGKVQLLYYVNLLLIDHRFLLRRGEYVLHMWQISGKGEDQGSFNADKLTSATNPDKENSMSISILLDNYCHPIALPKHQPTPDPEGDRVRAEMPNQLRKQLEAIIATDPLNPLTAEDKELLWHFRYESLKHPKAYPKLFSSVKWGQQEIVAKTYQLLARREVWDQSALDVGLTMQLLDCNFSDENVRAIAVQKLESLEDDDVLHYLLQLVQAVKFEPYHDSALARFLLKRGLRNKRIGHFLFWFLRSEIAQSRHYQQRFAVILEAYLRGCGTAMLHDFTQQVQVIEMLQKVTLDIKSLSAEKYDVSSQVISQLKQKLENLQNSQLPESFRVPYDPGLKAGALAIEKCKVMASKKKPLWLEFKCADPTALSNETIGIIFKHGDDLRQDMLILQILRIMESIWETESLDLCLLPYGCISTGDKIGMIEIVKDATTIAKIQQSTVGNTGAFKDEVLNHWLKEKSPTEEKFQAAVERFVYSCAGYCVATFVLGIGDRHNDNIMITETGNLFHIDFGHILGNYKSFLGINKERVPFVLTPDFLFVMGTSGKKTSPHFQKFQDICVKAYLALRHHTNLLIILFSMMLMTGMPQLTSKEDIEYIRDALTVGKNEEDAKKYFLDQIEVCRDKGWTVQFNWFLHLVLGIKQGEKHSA
# T1 sequence (P07333 20-972): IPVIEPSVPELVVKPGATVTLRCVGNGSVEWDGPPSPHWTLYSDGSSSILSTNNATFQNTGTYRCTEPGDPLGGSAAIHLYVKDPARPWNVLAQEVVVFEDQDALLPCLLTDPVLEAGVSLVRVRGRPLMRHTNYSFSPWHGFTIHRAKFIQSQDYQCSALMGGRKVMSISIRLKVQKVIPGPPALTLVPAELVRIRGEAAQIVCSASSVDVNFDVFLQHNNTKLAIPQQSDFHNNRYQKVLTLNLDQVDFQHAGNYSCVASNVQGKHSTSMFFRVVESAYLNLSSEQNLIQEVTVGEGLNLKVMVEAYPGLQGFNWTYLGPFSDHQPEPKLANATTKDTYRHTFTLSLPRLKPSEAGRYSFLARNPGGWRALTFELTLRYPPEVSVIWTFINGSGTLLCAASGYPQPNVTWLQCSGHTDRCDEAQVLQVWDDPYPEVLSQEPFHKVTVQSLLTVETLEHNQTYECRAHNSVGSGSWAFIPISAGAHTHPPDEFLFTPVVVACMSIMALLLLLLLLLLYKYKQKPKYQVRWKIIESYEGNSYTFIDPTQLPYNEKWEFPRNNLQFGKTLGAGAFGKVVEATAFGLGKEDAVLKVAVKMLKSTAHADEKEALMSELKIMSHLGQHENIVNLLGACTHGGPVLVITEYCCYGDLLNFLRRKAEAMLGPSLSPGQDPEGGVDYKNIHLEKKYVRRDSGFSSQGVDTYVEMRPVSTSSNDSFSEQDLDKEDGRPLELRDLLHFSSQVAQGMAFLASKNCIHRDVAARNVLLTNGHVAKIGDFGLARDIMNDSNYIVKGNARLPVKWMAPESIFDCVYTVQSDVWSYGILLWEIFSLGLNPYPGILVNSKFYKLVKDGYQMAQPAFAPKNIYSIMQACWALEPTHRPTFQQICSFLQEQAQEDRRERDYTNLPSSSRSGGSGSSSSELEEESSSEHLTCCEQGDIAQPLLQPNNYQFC
# T4 sequence (Q9NYA1 whole entry): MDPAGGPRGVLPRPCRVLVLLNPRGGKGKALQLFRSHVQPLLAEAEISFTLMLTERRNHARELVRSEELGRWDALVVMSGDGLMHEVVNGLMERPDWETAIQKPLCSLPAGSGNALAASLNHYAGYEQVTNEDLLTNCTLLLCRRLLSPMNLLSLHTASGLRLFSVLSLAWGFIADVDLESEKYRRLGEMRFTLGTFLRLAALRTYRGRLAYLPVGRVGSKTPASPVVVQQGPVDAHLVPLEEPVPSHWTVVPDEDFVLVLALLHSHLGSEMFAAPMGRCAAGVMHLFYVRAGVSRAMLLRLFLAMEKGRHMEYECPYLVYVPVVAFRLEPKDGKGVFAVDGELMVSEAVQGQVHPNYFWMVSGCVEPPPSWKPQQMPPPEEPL
Compound,% inhibition of activity [1] [%],% inhibition of activity [2] [%],% inhibition of activity [3] [%],% inhibition of activity [4] [%],% inhibition of activity [5] [%],% inhibition of activity [6] [%],% inhibition of activity [7] [%],% inhibition of activity [8] [%],% inhibition of activity [9] [%],% inhibition of activity [10] [%],% inhibition of activity [11] [%],% inhibition of activity [12] [%],% inhibition of activity [13] [%],% inhibition of activity [14] [%],% inhibition of activity [15] [%],% inhibition of activity [16] [%],% inhibition of activity [17] [%],% inhibition of activity [18] [%],% inhibition of activity [19] [%]
CCn1c(=O)c(-c2ccc(-c3noc(C)n3)cc2Cl)cc2cnc(Nc3ccc(C4CCN(C)CC4)cc3)nc21 [Frax716],97,−1,2,−3,12,2,60,3,1,1,0,10,7,−9,7,40,17,−4,14
CCn1c(=O)c(-c2ccc(-c3cncc(C)n3)cc2Cl)cc2cnc(NCCC3CCN(C)CC3)nc21 [Frax1036],41,2,−1,0,24,7,15,−8,0,10,0,0,1,7,0,55,27,0,0
"Cc1nc(Nc2[nH]nc3c2CN(C(=O)N[C@H](CN(C)C)c2ccccc2)C3(C)C)c2sccc2n1 [PF3758309, reference compound]",20,8,4,4,97,15,72,13,16,79,0,10,100,52,14,8,98,6,77
